In brackets after ≈: the same amount, converted by molar mass.
How the values were obtained:
[1] = system: Puccinia recondita (f. sp. tritici Races PKB and PLD); assay: whole plant or invertebrate; assay type: in vivo; details: Puccinia recondita, 240 h; read-out: % control WLR
A.p = assay: Minimum Inhibitory Concentration Test, alternate (Table 4), A.p; assay type: cell-based; details: Aureobasidium pullulans, TSB, 72 hours
Method: (§1) A 125 μl aliquot of 10,000 ppm test compound in acetone was added to 4.88 ml of TSB to provide a 250 ppm solution. From this solution, 100 μL was transferred to the first row of two microtiter plate columns. Both replicates and five additional compounds were all serially diluted 1:1 to a final concentration of 0.8 ppm in TSB.
(§2) Inoculation was accomplished by diluting a 24 hr Ps fl culture, four mls per 36 mls of phosphate buffer solution. A Dynatech autoinoculator was used to transfer 1.5 μl of this cell suspension to the microtiter plates. The plates were incubated at 30° C. for 3 days before the lowest concentration at which no growth occurs was recorded in the database. The SOK data and MIC test data on Ps.fl, Ps.ae, E.c, and S.a. bacteria and Candida albicans (C.alb), A.n and A.p fungi are listed in Table 4.

[2] = system: Pseudoperonospora cubensis; assay: whole plant or invertebrate; assay type: in vivo; details: Pseudoperonospora cubensis, in Cucumis sativus, 168 h; read-out: % control CDM
[3] = system: Pellicularia filamentosa (f. sp. sasiki); assay: whole plant or invertebrate; assay type: in vivo; details: 120 h; read-out: % control RSB
Phytophthora infestans = assay: whole plant or invertebrate; assay type: in vivo; details: Phytophthora infestans, in Solanum lycopersicum, 96 h, read-out: % control TLB
Ps.ae = assay: Minimum Inhibitory Concentration Test, alternate (Table 4), Ps.ae; assay type: cell-based, Pseudomonas aerugenosa; details: Pseudomonas, TSB, 72 hours
Piricularia oryzae = assay: whole plant or invertebrate; assay type: in vivo; details: Pyricularia oryzae, read-out: % control RB
Candida albicans (C.alb) = assay: Minimum Inhibitory Concentration Test, alternate (Table 4), C.alb; assay type: cell-based; details: Candida albicans, TSB, 72 hours
Method: as §1, §2

[4] = system: Erysiphe graminis (f. sp. tritici); assay: whole plant or invertebrate; assay type: in vivo; details: Blumeria graminis; read-out: % control WPM
Pseudomonas fluorescens = assay: Minimum Inhibitory Concentration Test, alternate (Table 4), Ps.fl; assay type: cell-based; details: Pseudomonas fluorescens, TSB, 72 hours, 30° C
Method: as §1, §2

E.c = assay: Minimum Inhibitory Concentration Test, alternate (Table 4), E.c; assay type: cell-based, Escherichia coli; details: Escherichia coli, TSB, 72 hours
Method: as §1, §2

S.a = assay: Minimum Inhibitory Concentration Test, alternate (Table 4), S.a; assay type: cell-based, Staphylococcus aureus; details: Staphylococcus aureus, TSB, 72 hours
Method: as §1, §2

A.n = assay: Minimum Inhibitory Concentration Test, alternate (Table 4), A.n; assay type: cell-based, Aspergillus niger; details: Aspergillus niger, TSB, 72 hours
Method: as §1, §2

Compound | pest or weed control at 100 ppm [1] | MIC (A.p) | pest or weed control at 100 ppm [2] | pest or weed control at 100 ppm [3] | pest or weed control at 100 ppm (Phytophthora infestans) | MIC (Ps.ae) | pest or weed control at 100 ppm (Piricularia oryzae) | MIC (Candida albicans (C.alb)) | pest or weed control at 100 ppm [4] | MIC (Pseudomonas fluorescens) | MIC (E.c) | MIC (S.a) | MIC (A.n) | pest or weed control at 200 ppm [1] | pest or weed control at 200 ppm [2] | pest or weed control at 200 ppm [3] | pest or weed control at 200 ppm (Piricularia oryzae) | pest or weed control at 200 ppm [4] | pest or weed control at 25 ppm [1]
CCCCCCCCNC(=O)/C=C\SC(C(=O)NCCc1ccccn1)C(=O)OCC (stereo not drawn) [Example 66, N-n-octyl-cis-3-{2-[ethyl-N-(2-(2-pyridyl)ethyl)malonamido]thio}acrylamide] | 0% | < 2 µg/mL | 100% | 0% | 40% | > 250 µg/mL | 0% | < 2 µg/mL | 0% | > 250 µg/mL | > 250 µg/mL | 63 µg/mL (≈ 140 µM) | < 2 µg/mL |  |  |  |  |  | 
CCCCCCCCNC(=O)/C=C\SC(C(=O)NCCCN1CCOCC1)C(=O)OCC (stereo not drawn) [Example 51, N-n-octyl-cis-3-{2-[ethyl-N-(3-(4-morpholino)propyl)malonamido]thio}acrylamide] | 0% | < 2 µg/mL | 99% | 0% | 0% | > 250 µg/mL | 0% | < 2 µg/mL | 0% | > 250 µg/mL | > 250 µg/mL | 31 µg/mL (≈ 65.7 µM) | < 2 µg/mL |  |  |  |  |  | 
CCCCCCCCNC(=O)/C=C\SC(C(C)=O)C(=O)Nc1ccc(OC)cc1 (stereo not drawn) [Example 47, N-n-octyl-cis-3-{2-[N-(4-methoxyphenyl)acetoacetamido]thio}acrylamide] | 0% | < 2 µg/mL | 100% | 0% | 80% | > 250 µg/mL | 0% | 4 µg/mL (≈ 9.51 µM) | 0% | > 250 µg/mL | > 250 µg/mL | 31 µg/mL (≈ 73.7 µM) | 4 to 16 µg/mL (≈ 9.51 to 38 µM) |  |  |  |  |  | 
CCCCCCCCNC(=O)/C=C\SC(C(=O)Nc1cccc(Cl)c1Cl)C(=O)OCC (stereo not drawn) [Example 35, N-n-octyl-cis-3-{2-[ethyl-N-(2,3-dichlorophenyl)malonamido]thio}acrylamide] | 50% | < 2 µg/mL | 99% | 0% | 95% | > 250 µg/mL | 0% | 4 µg/mL (≈ 8.17 µM) | 0% | 500 µg/mL (≈ 1020 µM) | > 250 µg/mL | > 250 µg/mL | 8 to 16 µg/mL (≈ 16.3 to 32.7 µM) |  |  |  |  |  | 
CCCCCCCCNC(=O)/C=C\SC(C(C)=O)C(=O)NCc1ccccc1 (stereo not drawn) [Example 12, N-n-octyl-cis-3-[2-(N-benzylacetoacetamideo)thio]acrylamide] |  | 8 µg/mL (≈ 19.8 µM) |  |  | 100% | > 500 µg/mL |  | 16 µg/mL (≈ 39.5 µM) |  | 125 to 500 µg/mL (≈ 309 to 1240 µM) | > 500 µg/mL | > 500 µg/mL | 4 to 16 µg/mL (≈ 9.89 to 39.5 µM) | 75% | 100% | 25% | 75% | 75% | 
CCCCCCCCNC(=O)/C=C\SC(C(=O)Nc1ccc(Cl)cc1Cl)C(=O)OCC (stereo not drawn) [Example 41, N-n-octyl-cis-3-{2-[ethyl-N-(2,4-dichlorophenyl)malonamido]thio}acrylamide] | 0% | 8 µg/mL (≈ 16.3 µM) | 100% | 0% | 87% | > 500 µg/mL | 99% | 63 µg/mL (≈ 129 µM) | 50% | > 500 µg/mL | > 500 µg/mL | > 500 µg/mL | 8 to 31 µg/mL (≈ 16.3 to 63.3 µM) |  |  |  |  |  | 
CCCCCCCCNC(=O)/C=C\SC(C(=O)Nc1cc([N+](=O)[O-])ccc1Cl)C(=O)OCC (stereo not drawn) [Example 45, N-n-octyl-cis-3-{2-[ethyl-N-(2-chloro-5-nitrophenyl)malonamido]thio}acrylamide] |  | < 2 µg/mL |  | 0% | 0% | > 250 µg/mL | 0% | 4 µg/mL (≈ 8 µM) | 0% | > 250 µg/mL | > 250 µg/mL | 63 µg/mL (≈ 126 µM) | 4 to 8 µg/mL (≈ 8 to 16 µM) |  |  |  |  |  | 50%
